Assay results as given in ChEMBL document CHEMBL3137667, “[Drug-induced liver injury; fourteenth updated edition of the bibliographic database of liver injuries and related drugs]” (Gastroenterol Clin Biol, 2004).

Columns and labels:
[1] = Highest frequency of moderate liver toxicity observed during clinical trials, expressed as a percentage. [column '% BIOL' in source]; conditions: human
[2] = Highest frequency of acute liver toxicity observed during clinical trials, expressed as a percentage. [column '% AIGUE' in source]; conditions: human
[3] = Comments (NB not yet translated). [column 'COMMENTAIRES' in source]; conditions: human
[4] = human, serum
[5] = human, serum; remark: listed apart in the source
[6] = human
[7] = human; remark: listed apart in the source
[8] = human; remark: listed apart in the source
[9] = human, serum, 4383 h
[10] = human; remark: listed apart in the source
[11] = human; remark: listed apart in the source
[12] = human; remark: listed apart in the source
[13] = human; remark: listed apart in the source
[14] = human; remark: listed apart in the source
[15] = human; remark: listed apart in the source
[16] = Times to onset, minimal and maximal, observed in the indexed observations. [column 'DELAI' in source]; conditions: human
[17] = Proposed mechanism(s) of liver damage. [column 'MEC' in source]; conditions: human
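Throughout, for Hepatotoxicity (association with vascular disease): count of indexed literature references reporting vascular liver injury in humans, e.g. peliosis hepatitis, hepatic veno-occlusive disease or Budd-Chiari syndrome.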
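Throughout, for Hepatotoxicity (benign tumour): value is a count of indexed literature references citing a benign tumour confirmed by histopathology.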
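Throughout, for Hepatotoxicity (choleostasis): human cholestatic liver injury, shown by histopathology or by peak ALT or AST elevation over alkaline phosphatase ratio below 2, value counts indexed literature reports.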
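Throughout, for Hepatotoxicity (chronic liver disease): chronic liver injury confirmed by histopathology or persistently raised serum aminotransferase activity beyond 6 months, value given as the count of indexed literature references.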
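Throughout, for Hepatotoxicity (cirrhosis): value is a count of indexed literature references reporting cirrhosis confirmed by histopathology.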
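Throughout, for Hepatotoxicity (cytolytic): human cytolytic liver injury, shown by histopathology or by a ratio above 5 of peak ALT or AST elevation to alkaline phosphatase elevation, value counts indexed references.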
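Throughout, for Hepatotoxicity (granulomatous hepatitis): value is a count of indexed literature references reporting granulomatous liver disease confirmed by histopathology.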
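Throughout, for Hepatotoxicity (malignant tumour): malignant tumour confirmed by histopathology, value gives the count of indexed literature references reporting it.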
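Throughout, for Hepatotoxicity (severe hepatitis): human clinical data: severe hepatitis, meaning potentially life-threatening liver failure or clinically observed cases, the value counts how many indexed literature references report it.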
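Throughout, for Hepatotoxicity (steatosis): steatosis confirmed by histopathology, value is the count of indexed references.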

Compound	Hepatotoxicity (moderate) [1] [%]	Hepatotoxicity (acute) [2] [%]	Hepatotoxicity (comment) [3]	Hepatotoxicity (moderate) [4]	Hepatotoxicity (acute) [5]	Hepatotoxicity (cytolytic) [6]	Hepatotoxicity (choleostasis) [7]	Hepatotoxicity (severe hepatitis) [8]	Hepatotoxicity (chronic liver disease) [9]	Hepatotoxicity (cirrhosis) [10]	Hepatotoxicity (granulomatous hepatitis) [11]	Hepatotoxicity (association with vascular disease) [12]	Hepatotoxicity (steatosis) [13]	Hepatotoxicity (malignant tumour) [14]	Hepatotoxicity (benign tumour) [15]	Hepatotoxicity (time to onset) [16]	Hepatotoxicity (mechanism) [17]
CN(C)C(=O)Oc1cc(OC(=O)N(C)C)cc(C(O)CNC(C)(C)C)c1 (stereo not given) [BAMBUTEROL]	0	0	VOIR_TERBUTALINE	1	0	0	0	0	0	0	0	0	0	0	0		
CO/N=C(\C(=O)N[C@@H]1C(=O)N2C(C(=O)O)=C(CSc3nnnn3C)CS[C@H]12)c1csc(N)n1 [CEFMENOXIME]	12.2	0	CHOLESTASE_PROLONGEE	11	1	0	1	0	0	0	1	0	0	0	0		
C[C@]12CCC(=O)C=C1CC[C@@H]1[C@@H]2C(=O)C[C@@]2(C)[C@H]1CC[C@]2(O)C(=O)CO [CORTISONE]	0	0	AGGRAVATION_HEPATITE_VIRALE	0	0	0	0	0	0	0	0	2	5	0	0		
CC[C@H](c1ccc(O)cc1)[C@@H](CC)c1ccc(O)cc1 [HEXESTROL]	0	0	NASH	0	0	0	0	0	1	0	0	0	1	0	0		
CN1C(=O)OC(C)(C)C1=O [TRIMETHADIONE]	0	0		1	3	1	0	0	0	0	0	0	0	0	0	2 weeks - 1 month	Allergic
CC(C)[C@H](N)C(=O)OCCOCn1cnc2c(=O)[nH]c(N)nc21 [VALACYCLOVIR]	17.6	0		2	1	1	1	0	0	0	0	0	0	0	0	10 days	Dose-dependant
COc1ccc(C(CN(C)C)C2(O)CCCCC2)cc1 (stereo not given) [VENLAFAXINE]	2.8	0		3	4	3	1	0	0	0	0	0	0	0	0	12 days - 6 months	Allergic
CCOC(=O)CN[C@@H](C(=O)N1CC[C@H]1C(=O)NCc1ccc(/C(N)=N\O)cc1)C1CCCCC1 [XIMELAGATRAN]	9.8	6.8		9	3	0	0	0	0	0	0	0	0	0	0	1 month - 6 months	Dose-dependant
CC(c1cc2ccccc2s1)N(O)C(N)=O (stereo not given) [ZILEUTON]	16.7	0		8	2	1	0	0	0	0	0	0	0	0	0	24 days	Dose-dependant
Cc1cc(CC(=O)O)n(C)c1C(=O)c1ccc(Cl)cc1 [ZOMEPIRAC]	1.7	0		2	0	0	0	0	0	0	0	0	0	0	0	2 weeks	Allergic
BCG VACCINE	10	0.9		7	6	2	2	0	0	0	32	0	0	0	0	1 hour - 2 years	Allergic
CARBOPLATIN	27	6.1		5	1	0	1	1	0	0	0	5	0	0	0	1 week	Dose-dependant
NADROPARIN CALCIUM	66.7	0		8	0	0	0	0	0	0	0	0	0	0	0	5 days - 1 week	Dose-dependant
STIBOGLUCONATE	61.5	2		12	2	1	0	0	0	0	0	0	0	0	0	1 week - 3 weeks	Dose-dependant
